# Measured values from patent publication US11795177B2, “Substituted quinoline analogs as aldehyde dehydrogenase 1A1 (ALDH1A1) inhibitors” (THE UNITED STATES OF AMERICA, AS REPRESENTED BY THE …, priority 2017, dated 2023).
# System: MIA PaCa-2 cells
# Assay: MIA PaCa2 cell-based assay (1,536-well high-content imaging ALDEFLUOR assay)
# Parameters: species or system human
# Conditions: Homo sapiens, 0.5 h, ALDEFLUOR BAAA substrate 500 nM, 30 minutes
# Protocol: Example 359. MIA PaCa2 Cell-Based Assay (In Vitro Assay)
# 1,536-Well High-Content Imaging ALDEFLUOR Assay
# The ALDEFLUOR™ kit was purchased from […] Technologies (Vancouver, Canada; #01700). MIA PaCa-2 cells (5 μL; 1,000 cells/well) were dispensed into black, optical quality (cyclic olefin copolymer) clear bottom, medium binding TC treated 1,536-well plates (Aurora Microplates, Whitefish Mont.) using a Multidrop Combi dispenser (ThermoFisher) and incubated overnight (37° C., 5% CO2, 85% RH). Media (RPMI 1640 (Life Technologies, Carlsbad, Calif.), supplemented with 2 mM L-Glutamine (Life Technologies), 10% HyClone™ fetal bovine serum (FBS, GE Healthcare, Piscataway, N.J.) and 100 U/mL penicillin and 100 μg/mL streptomycin (Life Technologies)) was subsequently removed by centrifuging plates upside down using a plate adaptor to collect media. A solution of BAAA substrate ([…] Technologies) and Hoechst 33342 (ThermoFisher, final concentrations of 500 nM and 0.5 nM, respectively) in ALDEFLUOR™ buffer ([…] Technologies #01700) was dispensed onto cells using a Multidrop Combi followed by immediate transfer (23 nL) of compound or control solutions using a Wako Pin-tool (final percentage of DMSO in the cell plates was 0.5%). Unless otherwise noted, all compounds were assayed as 16-point dilutions spanning a final concentration range of 1.4 nM to 47.8 μM. The neutral and positive assay controls were DMSO and DEAB (4.6 μM), respectively. Cells were incubated for 30 minutes or the indicated amount of time at 37° C., 5% CO2, 85% RH to allow the conversion of BAAA into BAA. Supernatant was subsequently removed by centrifugation as described above, then ALDEFLUOR™ buffer (3 μl) was dispensed by Multidrop Combi before imaging on an IN Cell 2200 (GE Healthcare).
# The above assay was modified for an online robotic screening system. After cell plating and overnight incubation, 4 μL of media were removed using a 64-tip metal aspirator head on a Wako aspirator station, leaving 1 μL remaining in the well, followed by a 4 μL dispense of BAAA and Hoechst 33342 in ALDEFLUOR™ buffer, for a final concentration of 500 nM and 0.5 nM, respectively Immediately following the dispense, 23 nL of compound or control solutions were transferred using a Wako Pin-tool. Cells were incubated for 30 minutes at 37° C., 5% CO2, 85% RH, followed by a 4 μL media removal using the Wako aspirator, and a subsequent 3 μL addition of ALDEFLUOR™ buffer. Plates were then immediately read on the IN Cell 2200 as described below.
# Image Acquisition and Analysis
# For images captured on the IN Cell 2200 widefield automated microscope, a 10×0.45 NA Plan Apo objective lens was used to capture the entire well of the 1,536-well plate using standard DAPI (390/18×, 432/48 m) and FITC (475/28×, 525/48 m) filter sets at 50 msec and 100 msec exposures, respectively. Images were subsequently analyzed using IN Cell Investigator v1.6.2 analysis software's canned Multi-Target Analysis algorithm (GE Healthcare). Hoechst stained nuclei were identified using top hat segmentation with a minimum area of 75 μm^2 and sensitivity of 93. BAA-retaining cells captured via FITC channel, were identified using multiscale top hat segmentation with a minimum area of 100 μm^2 and a sensitivity setting of 16. […] Data were plotted using GraphPad Prism software (GraphPad, San Diego, Calif.).
row,Structure (SMILES),IC50 [nM]
1,"C[C@@H]1CN(C(=O)c2cnc3ccc(F)cc3c2N2CCC(C)(C#N)CC2)CCN1S(C)(=O)=O [Example 223, (R)-1-(6-fluoro-3-(3-methyl-4-(methylsulfonyl)piperazine-1-carbonyl)quinolin-4-yl)-4-methylpiperidine-4-carbonitrile]",1000 to 10000
2,"O=C(c1cnc2ccc(F)cc2c1N1CCC(Cc2ccccc2)CC1)N1CCN(C(=O)C2CC2)CC1 [Example 200, (4-(4-benzylpiperidin-1-yl)-6-fluoroquinolin-3-yl)(4-(cyclopropanecarbonyl)piperazin-1-yl)methanone]",> 10000
3,"CC1(C#N)CCN(c2c(C(=O)N3CCN(S(C)(=O)=O)C(C)(C)C3)cnc3ccc(F)cc23)CC1 [Example 229, 1-(3-(3,3-dimethyl-4-(methylsulfonyl)piperazine-1-carbonyl)-6-fluoroquinolin-4-yl)-4-methylpiperidine-4-carbonitrile]",> 10000
4,"O=C(c1cnc2ccc(F)cc2c1N1CCCCCC1)N1CCN(C(=O)C2CC2)CC1 [Example 71, (4-(azepan-1-yl)-6-fluoroquinolin-3-yl)(4-(cyclopropanecarbonyl)piperazin-1-yl)methanone]",1000 to 10000
5,"CS(=O)(=O)N1CCN(C(=O)c2cnc3ccsc3c2N2CCC(C#N)(c3ccccc3)CC2)CC1 [Example 285, 1-(6-(4-(methylsulfonyl)piperazine-1-carbonyl)thieno[3,2-b]pyridin-7-yl)-4-phenylpiperidine-4-carbonitrile]",< 500
6,"CCS(=O)(=O)N1CCN(C(=O)c2cnc3ccc(F)cc3c2N2CCC(C)(C#N)CC2)CC1 [Example 156, 1-(3-(4-(ethylsulfonyl)piperazine-1-carbonyl)-6-fluoroquinolin-4-yl)-4-methylpiperidine-4-carbonitrile]",1000 to 10000
7,"CN(C)C(=O)N1CCN(C(=O)c2cnc3ccc(F)cc3c2N2CCC(C)(C#N)CC2)CC1 [Example 182, 4-(4-(4-cyano-4-methylpiperidin-1-yl)-6-fluoroquinoline-3-carbonyl)-N,N-dimethylpiperazine-1-carboxamide]",1000 to 10000
8,"CCC1(C#N)CCN(c2c(C(=O)N3CCN(S(C)(=O)=O)CC3)cnc3ccc(F)cc23)CC1 [Example 197, 4-ethyl-1-(6-fluoro-3-(4-(methylsulfonyl)piperazine-1-carbonyl)quinolin-4-yl)piperidine-4-carbonitrile]",< 500
9,"CC(=O)C1(c2ccccc2)CCN(c2c(C(=O)N3CCN(S(C)(=O)=O)CC3)cnc3ccc(F)cc23)CC1 [Example 216, 1-(1-(6-fluoro-3-(4-(methylsulfonyl)piperazine-1-carbonyl)quinolin-4-yl)-4-phenylpiperidin-4-yl)ethanone]",< 500
10,"CN(C)C(=O)N1CCN(C(=O)c2cnc3ccc(F)cc3c2N2CCC(C#N)(c3ccccc3)CC2)CC1 [Example 272, 4-(4-(4-cyano-4-phenylpiperidin-1-yl)-6-fluoroquinoline-3-carbonyl)-N,N-dimethylpiperazine-1-carboxamide]",< 500
11,"CS(=O)(=O)N1CCN(C(=O)c2cnc3ccc(F)cc3c2N2CCC(C#N)(c3ccccc3)CC2)CC1 [Example 209, 1-(6-fluoro-3-(4-(methylsulfonyl)piperazine-1-carbonyl)quinolin-4-yl)-4-phenylpiperidine-4-carbonitrile]",< 500
12,"CCC1(CC)CCN(c2c(C(=O)N3CCN(C(=O)C4CC4)CC3)cnc3ccc(F)cc23)CC1 [Example 81, (4-(cyclopropanecarbonyl)piperazin-1-yl)(4-(4,4-diethylpiperidin-1-yl)-6-fluoroquinolin-3-yl)methanone]",1000 to 10000
13,"N#CC1(c2ccccc2)CCN(c2c(C(=O)N3CCN(C(=O)C4CC4)CC3)cnc3ccc(Cl)cc23)CC1 [Cpd. 313, 1-(6-chloro-3-(4-(cyclopropanecarbonyl)piperazine-1-carbonyl)quinolin-4-yl)-4-phenylpiperidine-4-carbonitrile]",< 500
14,"CS(=O)(=O)N1CCN(C(=O)c2cnc3ccc(F)cc3c2N2CCC(C=O)(c3ccccc3)CC2)CC1 [Example 257, 1-(6-fluoro-3-(4-(methylsulfonyl)piperazine-1-carbonyl)quinolin-4-yl)-4-phenylpiperidine-4-carbaldehyde]",< 500
15,"COc1ccc2ncc(C(=O)N3CCN(C(=O)C4CC4)CC3)c(N3CCC(=O)CC3)c2c1 [Example 67, 1-(3-(4-(cyclopropanecareonyl)piperazine-1-carbonyl)-6-methoxyquinolin-4-yl)piperidin-4-one]",> 10000
16,"CC1(C#N)CCN(c2c(C(=O)N3CCN(C(=O)C4CC4)CC3)cnc3ccc(F)cc23)CC1 [Example 64, 1-(3-(4-(cyclopropanecarbonyl)piperazine-1-carbonyl)-6-fluoroquinolin-4-yl)-4-methylpiperidine-4-carbonitrile]",1000 to 10000
17,"N#CC1(c2ccc(-c3c(C(=O)N4CCN(C(=O)C5CC5)CC4)cnc4ccsc34)cc2)CC1 [Example 288, 1-(4-(6-(4-(cyclopropanecarbonyl)piperazine-1-carbonyl)thieno[3,2-b]pyridin-7-yl)phenyl)cyclopropanecarbonitrile]",< 500
18,"CC1(C#N)CCN(c2c(C(=O)N3CCN(S(C)(=O)=O)CC3)cnc3ccc(F)cc23)CC1 [Example 86, 1-(6-fluoro-3-(4-(methylsulfonyl)piperazine-1-carbonyl)quinolin-4-yl)-4-methylpiperidine-4-carbonitrile]",1000 to 10000
19,"C=CS(=O)(=O)N1CCN(c2c(C(=O)N3CCN(S(C)(=O)=O)CC3)cnc3ccc(F)cc23)CC1 [Example 221, (6-fluoro-4-(4-(vinylsulfonyl)piperazin-1-yl)quinolin-3-yl)(4-(methylsulfonyl)piperazin-1-yl)methanone]",1000 to 10000
20,"CC(C)(C#N)c1ccc(-c2c(C(=O)N3CCN(S(C)(=O)=O)CC3)cnc3ccc(F)cc23)c(F)c1 [Cpd. 311, 2-(3-fluoro-4-(6-fluoro-3-(4-(methylsulfonyl)piperazine-1-carbonyl)quinolin-4-yl)phenyl)-2-methylpropanenitrile]",< 500
21,"CS(=O)(=O)N1CCN(C(=O)c2cnc3ccc(F)cc3c2N2CCC3(CC2)Cc2ccccc2C3=O)CC1 [Example 201, 1′-(6-fluoro-3-(4-(methylsulfonyl)piperazine-1-carbonyl)quinolin-4-yl)spiro[indene-2,4′-piperidin]-1(3H)-one]",1000 to 10000
22,"CS(=O)(=O)N1CCN(C(=O)c2cnc3ccc(Cl)cc3c2N2CCC(C#N)(c3ccccc3)CC2)CC1 [Cpd. 316, 1-(6-chloro-3-(4-(methylsulfonyl)piperazine-1-carbonyl)quinolin-4-yl)-4-phenylpiperidine-4-carbonitrile]",< 500
23,"O=C(c1cnc2ccc(F)cc2c1N1CCC2(CCCCC2)CC1)N1CCN(C(=O)C2CC2)CC1 [Example 75, (4-(cyclopropanecarbonyl)piperazin-1-yl)(6-fluoro-4-(3-azaspiro[5.5]undecan-3-yl)quinolin-3-yl)methanone]",1000 to 10000
24,"COc1ccc2c(N3CCC4(CC3)OCCO4)c(C(=O)N3CCN(C(=O)C4CC4)CC3)cnc2c1 [Example 47, (4-(cyclopropanecarbonyl)piperazin-1-yl)(7-methoxy-4-(1,4-dioxa-8-azaspiro[4.5]decan-8-yl)quinolin-3-yl)methanone]",1000 to 10000
25,"O=C(c1cnc2ccc(F)cc2c1N1CCC(c2ccccc2)CC1)N1CCN(C(=O)C2CC2)CC1 [Example 72, (4-(cyclopropanecarbonyl)piperazin-1-yl)(6-fluoro-4-(4-phenylpiperidin-1-yl)quinolin-3-yl)methanone]",> 10000
26,"COc1ccc2c(N3CCC(C#N)(c4ccccc4)CC3)c(C(=O)N3CCN(S(C)(=O)=O)CC3)cnc2c1 [Cpd. 318, 1-(7-methoxy-3-(4-(methylsulfonyl)piperazine-1-carbonyl)quinolin-4-yl)-4-phenylpiperidine-4-carbonitrile]",< 500
